# According to a melting point compilation (Tetko et al.; mined from patent text by program, amines drawn as free bases though some values may be those of a salt):
row,Compound,melting point [°C]
1,Cc1ccc(C(=O)c2cc([N+](=O)[O-])ccc2Cl)cc1,121
2,NS(=O)(=O)Oc1ccc([N+](=O)[O-])c(C(F)(F)F)c1,95 to 97
3,Nc1ncnc2c1nc(NCCP(=O)(O)O)n2C1OC(CO)C(O)C1O (centres undefined),175
4,COC(=O)c1ccc(-c2nc(-c3ccc(C)cc3)cs2)cc1,185 to 187
5,COc1ccc(-c2cncc(C#N)c2Nc2ccc3[nH]ccc3c2C)cc1OC,130 to 133
6,COC(=O)C1=C(C)NN=C(c2ccccc2)C1c1ccccc1 (centres undefined),158
7,Cc1nc(N2C(=O)N(Cc3ccc(F)cc3)CC2O)sc1C(=O)NCc1ccccc1 (centres undefined),133 to 134
8,O=C1C[C@@H](C(=O)O)N(C(=O)OCc2ccccc2)C1,99 to 101
9,CCCN(C)C(C)CN1CCc2c(c(=O)oc3cc(OC)ccc23)C1 (centres undefined),69 to 71
10,O=C1CN(c2ccccc2)C(=S)N1C1CCCCC1,156
11,Nc1ccc2oc(-c3ccccc3)cc2c1,156
12,COC(C)=CC(=O)Nc1ccc(Cl)c(Cl)c1,123
13,Cn1nc(-c2ccc([N+](=O)[O-])o2)c2c(Cl)ncnc21,195
14,CCc1cc(-c2c3ccccc3cc3oc(C)c(C)c23)cc(CC)c1OS(=O)(=O)c1ccc(C(=O)O)c(O)c1,222 to 227
15,COc1cccc(C(=O)Nc2nnn[nH]2)c1N,268 to 269
16,CONC(=O)c1cnn(-c2ccccc2)c1Br,194 to 197
17,CN1CCN(c2c(CO)cnc3c(NC(=O)c4c(Cl)cccc4Cl)cccc23)C1=S,253 to 254
18,COc1cc(C(C)C)c(NC(=O)CN2CCN(CCSc3nc4cccc([N+](=O)[O-])c4o3)CC2)c(C(C)C)c1,165 to 166
19,CCCCOc1ccc(-c2nc(CCOS(=O)(=O)c3ccc(C)cc3)c(C)o2)cc1,84.9
20,CCCCc1nn2c(c1Cc1ccc(-c3ccccc3C(=O)O)cc1)CCCC2,162
21,N=C(N)N(C[C@H]1CC[C@H](C(=O)Nc2ccnc3[nH]ccc23)CC1)C(=O)OCc1ccccc1,160 to 162
22,COc1ccccc1CN[C@H]1CCCN(CCCCCCCc2ccccc2)[C@H]1c1ccccc1 (relative stereo),67 to 77
23,O=C1C2=C(SCCO2)C(O)N1c1ccc2ccc(Cl)cc2n1 (centres undefined),270
24,CCCCCCNC(=O)OC1CCN(C(=O)Oc2ccc(Oc3ccc(C)cc3)cc2)CC1,84 to 85
25,CCSc1nc(C#N)c(C#N)nc1Cl,55 to 58.5

row,Compound,melting point [°C]
1,CN(CCc1ccccn1)C(=O)CCSc1cc(C(C)(C)C)c(O)c(C(C)(C)C)c1,82 to 84
2,CC(C)c1cc(C(=O)Nc2ccc(C(=O)O)nc2)oc1C(C)C,106 to 108
3,N#Cc1cc(F)c(N)c(Br)c1F,106 to 108
4,ClCCN(CCCl)CCCCOc1cccc(Nc2c3ccccc3nc3c(OCCN(CCCl)CCCl)cccc23)c1,95 to 96
5,O=C1NC(=O)C2(C=COc3c2ccc2ncccc32)N1 (centres undefined),330
6,Cc1nn(-c2c(Cl)cc(C(F)(F)F)cc2Cl)nc1C=NC(C#N)=C(N)C#N,238 to 239
7,CS(=O)CCNC(=O)c1cccc(-c2ccc3c(c2)C(c2ccc(Cl)cc2Cl)CC3)c1 (centres undefined),112 to 113
8,COc1ccc(Cn2c(=O)c(C(=O)NC3CCCCC3)c(O)c3cccnc32)cc1,149
9,COC(=O)C[C@@H](CC(=O)C=Cc1c(-c2ccc(F)cc2)c(-c2ccccc2)c(C(=O)Nc2ccccc2)n1C(C)C)O[Si](C)(C)C(C)(C)C,62 to 64
10,CCC(=O)C1=C(O)CC(c2c(C)c(C)c(C)c(C)c2C)CC1=O (centres undefined),84
11,C=CCCc1cc(C2(c3ccc(OC(F)F)cc3)N=C(N)N(C)C2=O)ccc1F (centres undefined),55 to 58
12,Cn1c(=S)ccc2ccccc21,114
13,CCOC(=O)Cc1ccc([N+](=O)[O-])c(OCC(F)(F)F)c1,76 to 77
14,COCCc1nc2c(N)nc3ccccc3c2n1CCCCN1CCCS1(=O)=O,156 to 158
15,CC1(C)CC(=O)N(CCCCN2CCN(c3nsc4ccccc34)CC2)C(=O)C1,146 to 147
16,CCOc1ccccc1-c1ncc(C(=O)O)c(=O)[nH]1,168 to 184
17,O=C(CCCCCn1ccnn1)NC[C@@H]1CN2C(=O)C[C@H]2O1 (racemic),108 to 109
18,CC(=O)[C@@H]1C[C@H](C(=O)OC(C)(C)C)N(C(=O)CNC(=O)Nc2cccc(C)c2)[C@@H]1c1ccccc1 (racemic),100
19,CS(=O)c1[nH]cc(Cc2ccccc2)c1[N+](=O)[O-] (centres undefined),189 to 190
20,COc1cc2c(cc1OCc1ccccc1)CN(Cc1ccccc1)C2,94 to 96
21,CCN(CC)c1ccc(Nc2nc(N)c(C(=O)c3ccc([N+](=O)[O-])cc3)s2)cc1,220 to 221
22,CCc1noc(-c2cn(-c3ccc(OCc4ccccc4)cc3)cn2)n1,171 to 172
23,CCOc1ccc(C2=NN(C(CC)CCCCC(=O)O)C(=O)C3CCCCC23)cc1OCC (centres undefined),90 to 91
24,COc1cc2cc(C(C#N)N3CCOCC3)sc2cc1OC (centres undefined),196 to 199
25,O=C(CCc1ccccc1)Nc1cc(-c2ccccc2)[nH]n1,168 to 170

row,Compound,melting point [°C]
1,O=C1NCCNC1Cc1ccccc1 (centres undefined),92 to 93
2,CCOCc1nc2c(N)nc3ccc(OCc4ccccc4)cc3c2n1CC(C)(C)NC(=O)C1CCCCC1,90
3,CN1C=Nc2cc(Cl)c3cc4ccccc4cc3c2C1,236
4,Cc1c(-c2cc(F)cc(C(F)(F)F)c2)ccc(N)c1C#N,96 to 97
5,CNC(=O)Oc1cccc(NC(=O)CC(C)(OC)OC)c1,139
6,CCCCC=CCCCCC(=O)CCCCC=CCCCCC=O,80 to 83
7,Nc1cc(F)cc(F)c1NC(=S)Nc1c(Cl)cccc1Cl,310 to 314
8,CC1(O)CC(=O)OC(C=Cc2ccccc2)C1(C)Br (centres undefined),121 to 123
9,CSCc1ccc(NC(=O)/C=C/c2cnn(C)c2-c2ccc(F)cc2)cc1,165 to 168
10,CC(C)(C)OC(=O)NCCNC(=O)c1ncsc1-c1cccc(OCc2cccc(Cl)c2)c1,116 to 117
11,COC(=O)c1scc(Cl)c1O,78
12,CCOCc1nc2c(N)nc3cc(-c4ccc(Cl)c(Cl)c4)cnc3c2n1CC(C)(C)O,144 to 147
13,O=C(c1cc(O)c(O)cc1[N+](=O)[O-])N1CCC(N2CCCCC2)CC1,290
14,COc1cccc(S(=O)(=O)c2ccc3c(c2)c(CCN(C)C(=O)OC(C)(C)C)c(C)n3C)c1,123 to 127
15,CN1CN(C2CC2)c2ccc(C(N)=O)cc2S1(=O)=O,271 to 273
16,Cn1c(-c2ccc(C(=N)N)cc2)nc2cc(C(=O)NCCC(=O)O)ccc21,247 to 249
17,CN1C(=O)CC[C@]2(C)c3ccc(Sc4ccc5nc6ccccc6c(=O)n5n4)cc3CC[C@@H]12,110 to 114
18,COc1cccc2c1C13CCNC(C2)C1(O)CCC(=O)C3 (centres undefined),137 to 139
19,CCOC(=O)C1CCN(c2cc(-n3c(=O)cc(C(F)(F)F)[nH]c3=O)c(F)cc2C#N)CC1,124
20,CCC(=O)Cc1ccc(C(=O)Nc2ccc3cc(CN4CCCC4)cnc3c2C)cc1,157
21,O=C(Nc1ccc(-n2nc(C(F)(F)F)cc2C(F)(F)F)cc1)Nc1ccc([N+](=O)[O-])cc1Cl,229 to 230
22,CC(=O)NCCOC(=O)C(Oc1ccc(F)c(C(F)(F)F)c1)c1ccc(Cl)cc1 (centres undefined),108
23,CCc1nn(C2CCCC2)c2cc(C(=O)Nc3cccc4ncccc34)ccc12,176 to 178
24,O=C(c1ccc(Cl)cc1)N1CCCC2=C1CCc1cc(Cl)ccc12,189 to 191
25,Cc1ccccc1C(=O)Nc1ccc(C(=O)N2CCCC(C)(O)c3ccccc32)cc1 (centres undefined),204 to 205

row,Compound,melting point [°C]
1,O=C(O)CC[C@H]1O[C@@H](c2ccccc2Cl)c2cc(Cl)ccc2N(Cc2ccccc2)C1=O (relative stereo),135 to 137
2,N#Cc1c[nH]cc1-c1ccc(Cl)cc1C(=O)c1ccccc1,175 to 177
3,CCOC(=O)NC(=S)SCC,60
4,Sc1nc2ccccc2n1Cc1cc(Cl)cc(Cl)c1,233
5,O=C1Nc2ccccc2SC1c1ccccc1Cl (centres undefined),200
6,CC1(Br)Cc2cc(C(=O)O)ccc2C1=O (centres undefined),203 to 205
7,CCOC(=O)CC(O)(CC)c1cc2n(c(=O)c1C)Cc1cc3ccccc3nc1-2 (centres undefined),185 to 188
8,COc1ccc(C=Nc2ccc(S(=O)(=O)NC(C)(C)C)cc2)cc1F,129 to 131
9,c1ccc(-c2ncc(-c3csc(-c4ccccc4)n3)cn2)cc1,214 to 216
10,COc1ccc(C2(C#N)CCC(=NO)CC2)cc1OC1CCCC1 (centres undefined),50 to 53
11,CC(C)(CO)NC(N)=S,127 to 129
12,C/C(=C\c1ccc(O)cc1)c1ccc2c(c1)C(C)(C)CCC2(C)C,138 to 140
13,[N-]=[N+]=Nc1ccc(C=Cc2ccncc2)cc1,88.2 to 89.4
14,Nc1ncnc2c1c(-c1ccc(Oc3ccccc3)cc1)cn2[C@H]1CC[C@@H](N2CCCCC2)CC1,192 to 195
15,Cc1ccc(NC(=O)N2CCC(=C(F)c3cccc(Oc4ccc(C(F)(F)F)cn4)c3)CC2)cn1,158 to 160
16,CN(C)c1ccc(C(=O)C=Cc2ccc([N+](=O)[O-])cc2)cc1,198 to 200
17,COc1ccc(C(=O)Nc2c(Cl)cncc2Cl)c2c1oc1ccc([N+](=O)[O-])cc12,315 to 317
18,CCc1cnc(CSc2cnc(N)s2)o1,119 to 120
19,CN(c1ccncc1)c1ccccc1C(=O)N1CCCCC1,110 to 111
20,CCNC(=NS(=O)(=O)c1ccc(O)cc1)N1N=CCC1c1ccccc1 (centres undefined),158 to 160
21,O=C(O)C(=O)c1ccc(OCCOc2ccc(C(F)(F)F)cc2)cc1,121 to 123
22,CC(O)Cc1cc2c(cc1C(=NNc1ccc(Cl)nn1)c1ccc([N+](=O)[O-])cc1)OCO2 (centres undefined),135 to 137
23,COc1cccc(C2CSc3ccccc3NC2=O)c1 (centres undefined),198
24,O=C(NCCc1ccc(Cl)cc1Cl)Nc1cccc2[nH]ccc12,170
